Test results published in article PMC6151825, “Identification of Novel Bisbenzimidazole Derivatives as Anticancer Vacuolar (H^+)-ATPase Inhibitors” (Molecules : A Journal of Synthetic Chemistry and Natural …, 2017).

Key:
MCF10A cells = test: MTS cell viability assay, MCF10A normal breast epithelial cells; format: cell-based; settings: Homo sapiens, MCF-10A, normal breast epithelial cell line, 48 h exposure, read-out: IC50 ± SD, MCF10A
Description: (§1) Our research group is extensively involved in studying the role of vacuolar (H^+)-ATPase in breast as well as ovarian cancer cell lines. We examined the antiproliferative activity of the novel bisbenzimidazole derivatives (2a–e) in selected human breast cancer cell lines, MDA-MB-231 (ATCC, HTB-26), MDA-MB-468 (ATCC, HTB-132), MCF-7 (ATCC, HTB-22), and the normal breast epithelial cell line, MCF10A. We also used the cisplatin-sensitive A2780, PA-1 (ATCC, CRL 1572), and the cisplatin-resistant Cis-A2780 ovarian cancer cell lines. A potent V-ATPase inhibitor, Bafilomycin A1 (Baf A1), was used as the positive control. We employed the CellTiter 96 AQueous One solution cell proliferation assay (MTS; Promega) to measure the in vitro cell viability of the cells.
(§2) We studied the antiproliferative activity of an initial hit (compound V), and bisbenzimidazole analogs 2a–e in the selected human breast cancer cell lines MDA-MB-231 (ATCC, HTB-26), MDA-MB-468 (ATCC, HTB-132), MCF-7 (ATCC, HTB-22) and the normal breast epithelial cell line, MCF10A, and the ovarian cancer cell lines, A2780, Cis-A2780, and PA-1 (ATCC, CRL 1572). Human breast cancer cell lines and the human ovarian cancer cell line (PA-1) were purchased from ATCC (American Type Culture Collection, Manassas, VA, USA). The cisplatin-sensitive human ovarian carcinoma cell line, A2780, was obtained from Sigma-Aldrich. The cisplatin-resistant human ovarian cell line, Cis-A2780, was produced in our laboratory, as described in the literature. MDA-MB-231, MDA-MB-468, MCF7, and PA-1 were cultured in the MEM medium (Gibco—Life Technologies, Carlsbad, CA, USA). For the MCF-7 cell line, a final concentration of 0.01 mg/mL human recombinant insulin was added to the media. The normal breast epithelial cell line, MCF-10A, was cultured in complete MEBM (Lonza/Clonetics, Walkersville, MD, USA), as recommended by ATCC. A2780, Cis-A2780 cell lines were cultured in RPMI 1640 medium (Invitrogen, Carlsbad, CA, USA). All media were supplemented with 10% (v/v) heat-inactivated fetal bovine serum (Biowest LLC, Riverside, MO, USA), 100 U/mL penicillin G and 100 U/mL streptomycin (Sigma Aldrich, St. Louis, MO, USA). Cultures were maintained at 37 °C in a humidified atmosphere containing 5% CO2 and were passaged by trypsinization after reaching 80–90% confluence.
(§3) CellTiter 96 AQueous One Solution cell proliferation assay (MTS) was used to measure the in vitro cell viability of cells, and the MTS purchased from Promega (Madison, WI, USA). Cells (5 × 10^3) were seeded into each well of 96-well plates and incubated overnight. Dimethyl Sulfoxide (DMSO) stock solutions of the compounds (V, 2a–e) were diluted in corresponding media and exposed to different concentrations for 48 h. All three independent experiments were performed in quadruplicates. Untreated cells were used as a negative control and data were presented as the mean ± standard deviation (S.D.). The absorbances at 492 nm were measured using a Microplate Reader (Synergy HT, Biotek Instruments, Winooski, VT, USA). The compound concentration that inhibited cell growth by 50% of the untreated control (IC50) was calculated from the dose response curves constructed by plotting percentages of cell viability versus drug concentrations using nonlinear regression analysis by GraphPad Prism Software 7 (GraphPad Software, San Diego, CA, USA).

Cis-A2780 cells = test: MTS cell viability assay, Cis-A2780; format: cell-based; settings: Homo sapiens, cisplatin-resistant ovarian cancer cell line, 48 h exposure, read-out: IC50 ± SD, Cis-A2780
Description: as §1, §2, §3

V-ATPase = test: Proton pump activity, acridine orange fluorescence quenching in MDA-MB-231 cells; format: cell-based, human; settings: 20 min incubation, relative to untreated control
Description: Since our hit compound (V) has been identified by the literature known V-ATPases, we hypothesized that these newly synthesized bisbenzimidazole derivatives (2a–e) will work as proton pump inhibitors (PPIs). To neutralize the acidic microenvironment, PPIs have been used to target the V-ATPase pumps present on the cell membrane. […] Therefore, we selected efficacious anticancer agents for the proton pump activity. We performed the standard proton pump activity using the acridine orange (AO) fluorescence quenching method. We selected two highly efficacious compounds (2d and 2e) and our initial hit (V) for proton pump activity. Baf A1 is a known V-ATPase inhibitor and is used as a positive control. The proton pump activity of cells was measured as a decrease in the fluorescence intensity per min. The activity of cells in the presence of Baf A1 and the potent compounds (V, 2d, and 2e) was calculated as a percentage of the untreated control. The values represented are mean values of duplicate measurements (Figure 10).
The proton pump activity was assessed by using the AO fluorescence quenching method. Bafilomycin A1 (Baf A1), AO, and nigericin were purchased from Sigma-Aldrich. Hank’s Balanced Salt Solution (HBSS) was purchased from Gibco-Life Technologies (Carlsbad, CA, USA). Human breast cancer MDA-MB-231 (ATCC, HTB-26) cells were washed twice with Hank’s Balanced Salt Solution (HBSS). The cells were re-suspended at a density of 5 × 10^6 cells per mL in the same buffer and placed on ice. H^+ uptake was initiated by the addition of MDA-MB-231 cells (10 μL; […]) to pre-warmed HBSS (2.4 mL) containing AO (6 μL; 30 μM) and placed in a cuvette. AO fluorescence was measured at an excitation wavelength of 495 nm and an emission wavelength of 540 nm using the LS-50B Luminescence Spectrometer (Perkin Elmer, Software: FL WinLab, Version 4.00.03). Nigericin (6 μL; 6 μM) was added to collapse the pH gradient and unquench the AO fluorescence (See Supplementary Figure S1: 1a and 1b). […] A decrease in the fluorescence intensities per min of Baf A1 and the potent compounds (V, 2d, and 2e) was calculated and is expressed as a percentage of the control (mean ± SD of two independent experiments) (Figure 10).
Figure 10 Effect of V-ATPase inhibitors on proton pump activity. Cells (MDA-MB-231) were subjected to acridine orange (AO) fluorescence quenching assay in the presence and absence of Baf A1 (1 μM) and potent compounds (V, 2d, and 2e; 10 μM). Fluorescence intensity at an excitation of 495 nm and an emission of 540 nm was quantified. Decrease in fluorescence intensity per min was calculated as percentage relative to control (mean ± SD; n = 2).

MDA-MB-231 cells = test: MTS cell viability assay, MDA-MB-231; format: cell-based; settings: Homo sapiens, breast cancer cell line, 48 h exposure, read-out: IC50 ± SD, MDA-MB-231
Description: as §1, §2, §3

MDA-MB-468 cells = test: MTS cell viability assay, MDA-MB-468; format: cell-based, human; settings: for IC50: Homo sapiens, MDA-MB-468, triple-negative breast cancer cell line, 48 h exposure, MTS, read-out: IC50 ± SD, MDA-MB-468
Description: as §1, §2, §3

A2780 cells = test: MTS cell viability assay, A2780; format: cell-based; settings: Homo sapiens, cisplatin-sensitive ovarian cancer cell line, 48 h exposure, read-out: IC50 ± SD, A2780
Description: as §1, §2, §3

MCF7 cells = test: MTS cell viability assay, MCF7; format: cell-based; settings: Homo sapiens, breast cancer cell line, 48 h exposure, read-out: IC50 ± SD, MCF7
Description: as §1, §2, §3

PA-1 cells = test: MTS cell viability assay, PA-1; format: cell-based; settings: Homo sapiens, cisplatin-sensitive ovarian cancer cell line, 48 h exposure, read-out: IC50 ± SD, PA-1
Description: as §1, §2, §3

Row | SMILES | IC50 (MCF10A cells) [µM] | IC50 (Cis-A2780 cells) [µM] | inhibition of the H^+-ATPase activity (V-ATPase; 1 μM) [%] | IC50 (MDA-MB-231 cells) [µM] | melting point [°C] | IC50 (MDA-MB-468 cells) [µM] | IC50 (A2780 cells) [µM] | IC50 (MCF7 cells) [µM] | IC50 (PA-1 cells) [µM] | inhibition of the H^+-ATPase activity (V-ATPase; 10 μM) [%] | times less toxic, MCF10A versus MDA-MB-468 (MDA-MB-468 cells; ratio of IC50 in normal MCF10A cells to IC50 in MDA-MB-468 cells) [times]
1 | CO/C1=C\C(C)=C\[C@@H](C)[C@@H](O)[C@@H](C)C/C(C)=C/C=C/[C@H](OC)[C@@H]([C@@H](C)[C@@H](O)[C@H](C)[C@@]2(O)C[C@@H](O)[C@H](C)[C@@H](C(C)C)O2)OC1=O [Baf A1, Bafilomycin A1, reference compound] | 0.036 ± 0.04 | 0.008 ± 0.01 | 25 | 0.026 ± 0.02 |  |  |  |  |  |  | 
2 | CN1CCC(Oc2ccc(-c3nc4ccc(-c5nc6ccc(N7CCN(C)CC7)cc6[nH]5)cc4[nH]3)cc2)CC1 [Compound 2a, 6-(4-Methylpiperazin-1-yl)-2'-(4-((1-methylpiperidin-4-yl)oxy)phenyl)-1H,3'H-2,5'-bibenzo[d]imidazole] | 13.3 ± 0.37 | 25.2 ± 0.32 |  | 17.6 ± 0.19 | 165 to 166 | 13.4 ± 0.33 | 26.5 ± 1.44 | 49.3 ± 2.76 |  |  | 
3 | CN(C)CCCOc1ccc(-c2nc3ccc(-c4nc5ccc(N6CCN(C)CC6)cc5[nH]4)cc3[nH]2)cc1 [Compound 2b, N,N-Dimethyl-3-(4-(6-(4-methylpiperazin-1-yl)-1H,3'H-[2,5'-bibenzo[d]imidazol]-2'-yl)phenoxy)propan-1-amine] | 2.95 ± 0.15 | 12.34 ± 0.02 |  | 4.77 ± 0.43 | 171 to 172 | 5.83 ± 0.23 | 11.8 ± 0.01 | 13.5 ± 2.14 | 5.83 ± 0.07 |  | 
4 | CN(C)CCOc1ccc(-c2nc3ccc(-c4nc5ccc(N6CCN(C)CC6)cc5[nH]4)cc3[nH]2)cc1 [Compound 2c, N,N-Dimethyl-2-(4-(6-(4-methylpiperazin-1-yl)-1H,3'H-[2,5'-bibenzo[d]imidazol]-2'-yl)phenoxy)ethanamine] | 0.81 ± 0.1 | 10.7 ± 0.22 |  | 0.75 ± 0.3 | 197 to 198 | 1.17 ± 0.36 | 12.9 ± 0.42 |  | 7.78 ± 0.81 |  | 
5 | COCCOc1ccc(-c2nc3ccc(-c4nc5ccc(N6CCN(C)CC6)cc5[nH]4)cc3[nH]2)cc1 [Compound 2d, 2'-(4-(2-Methoxyethoxy)phenyl)-6-(4-methylpiperazin-1-yl)-1H,3'H-2,5'-bibenzo[d]imidazole] | 1.55 ± 0.04 | 3.03 ± 0.18 |  | 2.44 ± 0.33 | 208 to 209 | 0.56 ± 0.05 | 1.97 ± 0.19 | 22 ± 3.9 | 3.09 ± 0.03 | 14 | 
6 | CN1CCN(c2ccc3nc(-c4ccc5nc(-c6ccc(OCCC(C)(C)C)cc6)[nH]c5c4)[nH]c3c2)CC1 [Compound 2e, 2'-(4-(3,3-Dimethylbutoxy)phenyl)-6-(4-methylpiperazin-1-yl)-1H,3'H-2,5'-bibenzo[d]imidazole] | 1.62 ± 0.14 | 1.34 ± 0.14 |  | 1.58 ± 0.05 | 247 to 248 | 0.04 ± 0.02 | 2.77 ± 0.05 | 2.02 ± 0.12 | 2.87 ± 0.15 | 42 | ~40
7 | CCOc1ccc(-c2nc3cc(-c4nc5cc(N6CCN(C)CC6)ccc5[nH]4)ccc3[nH]2)cc1 [Compound V] | 1.14 ± 0.13 | 3.95 ± 0.33 |  | 1.02 ± 0.08 |  | 0.72 ± 0.08 | 3.87 ± 0.09 | 9.33 ± 0.69 | 1.7 ± 0.21 | 30 | 
